Results from PMC6934184, “Selective DNA-PKcs inhibition extends the therapeutic index of localized radiotherapy and chemotherapy” (The Journal of Clinical Investigation, 2019).

Target: T1, MET (cMet) (Homo sapiens, UniProt P08581)
T1 construct: purchased Thermo Fisher Scientific (Life Technologies) SelectScreen
Test: SelectScreen Z'LYTE
Format: biochemical
Procedure, shortened: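 SelectScreen broad panel; activity (Z'LYTE, Adapta) plus binding formats. ATP: Km app for CSF1R Z'LYTE; 10 for CAMK1 Adapta. Readout = % per kinase.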

T1 sequence (P08581 25-1390): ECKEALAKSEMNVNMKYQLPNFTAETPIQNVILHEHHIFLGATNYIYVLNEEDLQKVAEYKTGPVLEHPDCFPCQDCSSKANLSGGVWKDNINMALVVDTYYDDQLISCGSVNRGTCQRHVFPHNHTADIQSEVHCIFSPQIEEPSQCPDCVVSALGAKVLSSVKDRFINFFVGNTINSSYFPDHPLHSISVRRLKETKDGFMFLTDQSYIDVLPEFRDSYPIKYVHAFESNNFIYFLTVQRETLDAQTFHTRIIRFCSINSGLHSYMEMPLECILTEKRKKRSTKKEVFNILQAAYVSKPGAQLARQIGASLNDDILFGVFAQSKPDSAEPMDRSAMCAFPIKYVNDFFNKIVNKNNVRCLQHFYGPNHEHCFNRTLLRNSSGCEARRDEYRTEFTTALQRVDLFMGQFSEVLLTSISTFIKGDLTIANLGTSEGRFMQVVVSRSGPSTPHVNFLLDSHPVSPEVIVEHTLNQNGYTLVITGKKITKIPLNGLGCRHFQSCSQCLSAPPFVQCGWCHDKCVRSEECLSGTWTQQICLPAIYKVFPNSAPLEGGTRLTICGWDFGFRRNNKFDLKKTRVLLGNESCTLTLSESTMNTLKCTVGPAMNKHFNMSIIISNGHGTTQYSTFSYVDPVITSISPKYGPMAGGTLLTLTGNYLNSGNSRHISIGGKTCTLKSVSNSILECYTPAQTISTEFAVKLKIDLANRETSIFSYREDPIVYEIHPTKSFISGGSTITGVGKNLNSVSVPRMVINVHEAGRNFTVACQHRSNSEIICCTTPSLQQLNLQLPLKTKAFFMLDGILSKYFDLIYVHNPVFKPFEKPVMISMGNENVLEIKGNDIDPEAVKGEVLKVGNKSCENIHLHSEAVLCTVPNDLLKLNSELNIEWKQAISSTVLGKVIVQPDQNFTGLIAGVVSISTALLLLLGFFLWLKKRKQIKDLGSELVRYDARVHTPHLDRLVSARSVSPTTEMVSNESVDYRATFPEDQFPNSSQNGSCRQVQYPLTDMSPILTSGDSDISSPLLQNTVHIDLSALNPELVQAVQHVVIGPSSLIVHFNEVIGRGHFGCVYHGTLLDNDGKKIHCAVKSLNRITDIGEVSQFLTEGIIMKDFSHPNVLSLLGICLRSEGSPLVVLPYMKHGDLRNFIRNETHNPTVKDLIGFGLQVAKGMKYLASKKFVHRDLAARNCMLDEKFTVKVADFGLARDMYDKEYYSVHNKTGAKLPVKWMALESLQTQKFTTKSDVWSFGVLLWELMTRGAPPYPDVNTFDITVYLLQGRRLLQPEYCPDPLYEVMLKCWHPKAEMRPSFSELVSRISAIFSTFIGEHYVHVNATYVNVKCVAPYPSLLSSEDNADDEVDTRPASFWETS

SMILES: CN(C(=O)CN1CCOCC1)c1ccc2sc3c(-c4cccc5c(=O)cc(N6CC7CCC(C6)O7)oc45)cccc3c2c1 [NU5455]
- inhibition at 1 µM: -15.1%
